The values below come from patent publication US8278345B2, “Inhibitors of glutaminyl cyclase” (Probiodrug AG, priority 2006, dated 2012).

As a reminder, the IC50 is the midpoint of a concentration-inhibition curve.

The target in this assay is hQC (Homo sapiens, UniProt Q16769). Put plainly: Inhibitor assay for glutaminyl cyclase activity (fluorometric, H-Gln-βNA / H-Gln-AMC). It is filed as biochemical. Particulars: read-out: IC50. Here is the method:
All measurements were performed with a BioAssay Reader HTS-7000Plus for microplates (Perkin Elmer) at 30° C. QC activity was evaluated fluorometrically using H-Gln-βNA. The samples consisted of 0.2 mM fluorogenic substrate, 0.25 U pyroglutamyl aminopeptidase (Unizyme, Hørsholm, Denmark) in 0.2 M Tris/HCl, pH 8.0 containing 20 mM EDTA and an appropriately diluted aliquot of QC in a final volume of 250 μl. Excitation/emission wavelengths were 320/410 nm. The assay reactions were initiated by addition of glutaminyl cyclase. QC activity was determined from a standard curve of β-naphthylamine under assay conditions. One unit is defined as the amount of QC catalyzing the formation of 1 μmol pGlu-βNA from H-Gln-βNA per minute under the described conditions.
In a second fluorometric assay, QC activity was determined using H-Gln-AMC as substrate. Reactions were carried out at 30° C. utilizing the NOVOStar reader for microplates (BMG labtechnologies). The samples consisted of varying concentrations of the fluorogenic substrate, 0.1 U pyroglutamyl aminopeptidase (Qiagen) in 0.05 M Tris/HCl, pH 8.0 containing 5 mM EDTA and an appropriately diluted aliquot of QC in a final volume of 250 μl. Excitation/emission wavelengths were 380/460 nm. The assay reactions were initiated by addition of glutaminyl cyclase. QC activity was determined from a standard curve of 7-amino-4-methylcoumarin under assay conditions. The kinetic data were evaluated using GraFit sofware.
For inhibitor testing, the sample composition was the same as described above, except of the putative inhibitory compound added. For a rapid test of QC-inhibition, samples contained 4 mM of the respective inhibitor and a substrate concentration at 1 KM. For detailed investigations of the inhibition and determination of Ki-values, influence of the inhibitor on the auxiliary enzymes was investigated first. In every case, there was no influence on either enzyme detected, thus enabling the reliable determination of the QC inhibition. The inhibitory constant was evaluated by fitting the set of progress curves to the general equation for competitive inhibition using GraFit software.

hQC, sequence (Q16769 29-361): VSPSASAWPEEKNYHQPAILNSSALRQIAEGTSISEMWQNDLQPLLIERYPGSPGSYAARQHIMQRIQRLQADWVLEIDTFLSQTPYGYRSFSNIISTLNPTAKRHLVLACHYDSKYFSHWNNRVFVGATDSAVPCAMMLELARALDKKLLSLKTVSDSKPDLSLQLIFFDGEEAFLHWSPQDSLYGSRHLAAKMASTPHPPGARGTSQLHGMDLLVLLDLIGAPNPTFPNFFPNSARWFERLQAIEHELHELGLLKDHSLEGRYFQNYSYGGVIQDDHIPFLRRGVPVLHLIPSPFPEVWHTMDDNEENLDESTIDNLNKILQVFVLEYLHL

Turning to `CC1=C(O)C(=O)N(CCCn2ccnc2)C1c1ccccc1O` (centres unmarked) [Compound 28, 3-Hydroxy-5-(2-hydroxy-phenyl)-1-(3-imidazol-1-yl-propyl)-4-methyl-1,5-dihydro-pyrrol-2-one], the IC50 was 400 nM.

`CC1=C(O)C(=O)N(CCCn2ccnc2)C1c1ccc(C)c(C)c1` (centres unmarked) [Compound 29, 5-(3,4-Dimethyl-phenyl)-3-hydroxy-1-(3-imidazol-1-yl-propyl)-4-methyl-1,5-dihydro-pyrrol-2-one]: the IC50 was determined as 400 nM.

As for `CCCCCC1C(C)=C(O)C(=O)N1CCCn1ccnc1` (centres unmarked) [Compound 30, 3-Hydroxy-1-(3-imidazol-1-yl-propyl)-4-methyl-5-pentyl-1,5-dihydro-pyrrol-2-one], the IC50 was 400 nM.

For `CC1=C(O)C(=O)N(CCCn2ccnc2)C1C` (centres unmarked) [Compound 31, 3-Hydroxy-1-(3-imidazol-1-yl-propyl)-4,5-dimethyl-1,5-dihydro-pyrrol-2-one], the IC50 is 6700 nM.

`CC1=C(O)C(=O)N(CCCn2ccnc2)C1c1ccc(CO)o1` (centres unmarked) [Compound 32, 3-Hydroxy-5-(5-hydroxymethyl-furan-2-yl)-1-(3-imidazol-1-yl-propyl)-4-methyl-1,5-dihydro-pyrrol-2-one]: the IC50 amounted to 1300 nM.

`CC1=C(O)C(=O)N(CCCn2ccnc2)C1/C=C/c1ccccc1` (centres unmarked) [Compound 33, 3-Hydroxy-1-(3-imidazol-1-yl-propyl)-4-methyl-5-(styryl)-1,5-dihydro-pyrrol-2-one]: the IC50 turned out to be 3100 nM.

Turning to `CC1=C(O)C(=O)N(CCCn2ccnc2)C1c1ccccc1` (centres unmarked) [Compound 34, 3-Hydroxy-1-(3-imidazol-1-yl-propyl)-4-methyl-5-phenyl-1,5-dihydro-pyrrol-2-one], the IC50 was 1300 nM.

Regarding `CC1=C(O)C(=O)N(CCCn2ccnc2)C1C1CCC=CO1` (centres unmarked) [Compound 35, 5-(3,4-Dihydro-2H-pyran-2-yl)-3-hydroxy-1-(3-imidazol-1-yl-propyl)-4-methyl-1,5-dihydro-pyrrol-2-one], the IC50 turned out to be 2200 nM.

For the compound `CC1=C(O)C(=O)N(CCCn2ccnc2)C1C1=CCCCC1` (centres unmarked) [Compound 36, 5-Cyclohex-1-enyl-3-hydroxy-1-(3-imidazol-1-yl-propyl)-4-methyl-1,5-dihydro-pyrrol-2-one], the IC50 came to 2200 nM.

`CC1=C(O)C(=O)N(CCCn2ccnc2)C1c1c[nH]c2cc(C)ccc12` (centres unmarked) [Compound 37, 3-Hydroxy-1-(3-imidazol-1-yl-propyl)-4-methyl-5-(6-methyl-1H-indol-3-yl)-1,5-dihydro-pyrrol-2-one]: the IC50 came to 400 nM.

As for `CC1=C(O)C(=O)N(CCCn2ccnc2)C1C(F)(F)F` (centres unmarked) [Compound 38, 3-Hydroxy-1-(3-imidazol-1-yl-propyl)-4-methyl-5-trifluoromethyl-1,5-dihydro-pyrrol-2-one], the IC50 is 2200 nM.

Turning to `CC1=C(O)C(=O)N(CCCn2ccnc2)C1c1c[nH]c2ccccc12` (centres unmarked) [Compound 39, 3-Hydroxy-1-(3-imidazol-1-yl-propyl)-5-(1H-indol-3-yl)-4-methyl-1,5-dihydro-pyrrol-2-one], the IC50 came to 400 nM.

As to `CC1=C(O)C(=O)N(CCCn2ccnc2)C1c1ncc[nH]1` (centres unmarked) [Compound 40, 3-Hydroxy-5-(1H-imidazol-2-yl)-1-(3-imidazol-1-yl-propyl)-4-methyl-1,5-dihydro-pyrrol-2-one], the half-maximal inhibitory concentration (IC50) turned out to be 2200 nM.

As to `CC1=C(O)C(=O)N(CCCn2ccnc2)C1Cc1ccccc1` (centres unmarked) [Compound 41, 5-Benzyl-3-hydroxy-1-(3-imidazol-1-yl-propyl)-4-methyl-1,5-dihydro-pyrrol-2-one], the half-maximal inhibitory concentration (IC50) turned out to be 1300 nM.

In the case of `CC1=C(O)C(=O)N(CCCn2ccnc2)C1c1c(O)ccc2ccccc12` (centres unmarked) [Compound 42, 3-Hydroxy-5-(2-hydroxy-naphthalen-1-yl)-1-(3-imidazol-1-yl-propyl)-4-methyl-1,5-dihydro-pyrrol-2-one], the half-inhibitory concentration (IC50) was determined as 2200 nM.

Take `CC1=C(O)C(=O)N(CCCn2ccnc2)C1c1ccccn1` (centres unmarked) [Compound 43, 3-Hydroxy-1-(3-imidazol-1-yl-propyl)-4-methyl-5-pyridin-2-yl-1,5-dihydro-pyrrol-2-one]: the IC50 is 2200 nM.

On to `CC1=C(O)C(=O)N(CCCn2ccnc2)C1c1ccncc1` (centres unmarked) [Compound 44, 3-Hydroxy-1-(3-imidazol-1-yl-propyl)-4-methyl-5-pyridin-4-yl-1,5-dihydro-pyrrol-2-one], for which the IC50 amounted to 3100 nM.

As for `CC1=C(O)C(=O)N(CCCn2ccnc2)C1c1cccs1` (centres unmarked) [Compound 45, 3-Hydroxy-1-(3-imidazol-1-yl-propyl)-4-methyl-5-thiophen-2-yl-1,5-dihydro-pyrrol-2-one], the IC50 was determined as 3100 nM.

Take `CC1=C(O)C(=O)N(CCCn2ccnc2)C1C1CC1` (centres unmarked) [Compound 46, 5-Cyclopropyl-3-hydroxy-1-(3-imidazol-1-yl-propyl)-4-methyl-1,5-dihydro-pyrrol-2-one]: the IC50 worked out at 2200 nM.

Consider `CC1=C(O)C(=O)N(CCCn2ccnc2)C1c1ccco1` (centres unmarked) [Compound 47, 5-(Furan-2-yl-)3-hydroxy-1-(3-imidazol-1-yl-propyl)-4-methyl-1,5-dihydro-pyrrol-2-one], for which the IC50 stood at 400 nM.

Regarding `CCCCC1C(C)=C(O)C(=O)N1CCCn1ccnc1` (centres unmarked) [Compound 48, 5-Butyl-3-hydroxy-1-(3-imidazol-1-yl-propyl)-4-methyl-1,5-dihydro-pyrrol-2-one], the IC50 was 2200 nM.

In the case of `CCC1C(C)=C(O)C(=O)N1CCCn1ccnc1` (centres unmarked) [Compound 49, 5-Ethyl-3-hydroxy-1-(3-imidazol-1-yl-propyl)-4-methyl-1,5-dihydro-pyrrol-2-one], the IC50 was determined as 4900 nM.

For `CC1=C(O)C(=O)N(CCCn2ccnc2)C1c1cccc(Cl)c1` (centres unmarked) [Compound 50, 5-(3-Chloro-phenyl)-3-hydroxy-1-(3-imidazol-1-yl-propyl)-4-methyl-1,5-dihydro-pyrrol-2-one], the IC50 turned out to be 400 nM.

As to `CC1=C(O)C(=O)N(CCCn2ccnc2)C1c1ccccc1F` (centres unmarked) [Compound 51, 5-(2-Fluoro-phenyl)-3-hydroxy-1-(3-imidazol-1-yl-propyl)-4-methyl-1,5-dihydro-pyrrol-2-one], the IC50 came out at 1300 nM.

For the compound `CC1=C(O)C(=O)N(CCCn2ccnc2)C1c1ccc(O)cc1` (centres unmarked) [Compound 52, 3-Hydroxy-5-(4-hydroxy-phenyl)-1-(3-imidazol-1-yl-propyl)-4-methyl-1,5-dihydro-pyrrol-2-one], the IC50 came to 1300 nM.

In the case of `CC1=C(O)C(=O)N(CCCn2ccnc2)C1c1cccc(O)c1` (centres unmarked) [Compound 53, 3-Hydroxy-5-(3-hydroxy-phenyl)-1-(3-imidazol-1-yl-propyl)-4-methyl-1,5-dihydro-pyrrol-2-one], the IC50 was 1300 nM.

`Cc1ccc(C2C(C(C)C)=C(O)C(=O)N2CCCn2ccnc2)cc1` (centres unmarked) [Compound 54, 3-Hydroxy-1-(3-imidazol-1-yl-propyl)-4-isopropyl-5-p-tolyl-1,5-dihydro-pyrrol-2-one]: the 50% inhibitory concentration (IC50) was 400 nM.

As for `CCCC1C(C(C)C)=C(O)C(=O)N1CCCn1ccnc1` (centres unmarked) [Compound 55, 3-Hydroxy-1-(3-imidazol-1-yl-propyl)-4-isopropyl-5-propyl-1,5-dihydro-pyrrol-2-one], the IC50 was determined as 5800 nM.

For `CC(C)C1=C(O)C(=O)N(CCCn2ccnc2)C1c1cc[nH]n1` (centres unmarked) [Compound 56, 3-Hydroxy-1-(3-imidazol-1-yl-propyl)-4-isopropyl-5-(1H-pyrazol-3-yl)-1,5-dihydro-pyrrol-2-one], the IC50 was 2200 nM.
